From ChEMBL document CHEMBL1130948, “Synthesis of sialyl Lewis X mimetics using the Ugi four-component reaction” (Bioorg Med Chem Lett, 1998)
pIC50: −log10 of the molar value. Several values for one entry are separate records, joined by “and”; a condition that tells them apart may be missing. Identical values can stand only once. Activity calls are given as the source filed them. The rule behind the calls is not given here.

Assays:
[1] = molecular target: T1, E-selectin (Homo sapiens) (UniProt P16581); experiment: Inhibitory activity against E-selectin was tested in a cell-free SLe-polymer/Selectin E assay, at 3 mM concentration.
T1 sequence (whole entry): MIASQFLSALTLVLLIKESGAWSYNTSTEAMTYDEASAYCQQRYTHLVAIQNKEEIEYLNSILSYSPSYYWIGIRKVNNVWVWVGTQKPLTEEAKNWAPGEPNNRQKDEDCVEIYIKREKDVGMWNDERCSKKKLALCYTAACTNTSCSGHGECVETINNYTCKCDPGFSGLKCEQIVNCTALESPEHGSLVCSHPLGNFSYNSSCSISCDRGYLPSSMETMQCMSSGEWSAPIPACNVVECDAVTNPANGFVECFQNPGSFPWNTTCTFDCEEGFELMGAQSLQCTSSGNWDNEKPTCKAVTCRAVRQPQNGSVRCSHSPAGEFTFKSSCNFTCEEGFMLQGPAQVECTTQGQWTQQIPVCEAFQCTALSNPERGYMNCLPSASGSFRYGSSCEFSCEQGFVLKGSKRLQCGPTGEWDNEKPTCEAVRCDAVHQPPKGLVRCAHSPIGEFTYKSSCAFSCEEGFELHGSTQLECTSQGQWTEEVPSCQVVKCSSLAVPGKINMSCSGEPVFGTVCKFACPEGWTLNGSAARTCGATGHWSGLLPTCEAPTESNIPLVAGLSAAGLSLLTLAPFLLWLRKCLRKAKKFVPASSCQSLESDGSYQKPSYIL

P-selectin [2] = molecular target: T2, P-selectin (Homo sapiens, UniProt P16109); experiment: Compound was tested in a cell-free SLe-polyacrylamide glycoconjugate binding assay (assay B) in P-selectin
T2 sequence (P16109 whole entry): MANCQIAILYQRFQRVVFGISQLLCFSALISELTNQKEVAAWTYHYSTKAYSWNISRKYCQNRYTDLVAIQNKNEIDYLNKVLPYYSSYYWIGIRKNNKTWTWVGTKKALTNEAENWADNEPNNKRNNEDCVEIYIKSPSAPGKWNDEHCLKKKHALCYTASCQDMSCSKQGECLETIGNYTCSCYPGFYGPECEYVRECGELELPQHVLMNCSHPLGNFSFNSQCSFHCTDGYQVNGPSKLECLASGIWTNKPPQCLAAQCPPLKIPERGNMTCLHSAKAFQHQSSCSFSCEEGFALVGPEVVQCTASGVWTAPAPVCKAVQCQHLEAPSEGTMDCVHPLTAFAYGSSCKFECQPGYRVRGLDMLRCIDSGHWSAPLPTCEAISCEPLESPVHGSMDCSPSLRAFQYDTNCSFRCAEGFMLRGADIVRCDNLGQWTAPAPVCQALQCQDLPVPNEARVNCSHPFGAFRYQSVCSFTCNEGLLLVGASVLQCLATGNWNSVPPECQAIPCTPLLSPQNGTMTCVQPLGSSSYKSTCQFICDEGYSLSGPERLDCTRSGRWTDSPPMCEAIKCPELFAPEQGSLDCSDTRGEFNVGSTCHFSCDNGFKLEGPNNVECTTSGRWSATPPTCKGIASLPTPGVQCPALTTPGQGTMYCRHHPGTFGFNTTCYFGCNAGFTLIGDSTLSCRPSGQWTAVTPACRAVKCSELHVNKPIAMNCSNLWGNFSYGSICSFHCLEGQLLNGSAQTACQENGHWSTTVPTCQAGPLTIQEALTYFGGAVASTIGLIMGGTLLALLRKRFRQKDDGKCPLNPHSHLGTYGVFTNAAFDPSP

E-selectin [3] = molecular target: T3, E-selectin (Homo sapiens, UniProt P16581); experiment: Compound was tested in a cell-free SLe-polyacrylamide glycoconjugate binding assay (assay B) in Selectin E
T3 sequence (P16581 whole entry): T1 sequence (whole entry)

E-selectin [4] = molecular target: T3, E-selectin; experiment: Compound was tested in a cell-free SLe-polyacrylamide glycoconjugate binding assay (assay A) in Selectin E
[5] = molecular target: T1, E-selectin (Homo sapiens); experiment: Compound was tested in a cell-free SLe-polymer/Selectin E assay, at 3 mM concentration.
P-selectin [6] = molecular target: T2, P-selectin; experiment: Tested in a cell-free SLe-polyacrylamide glycoconjugate binding assay (assay A) in P-selectin; inactive
[7] = molecular target: T1, E-selectin (Homo sapiens); experiment: (§1) Compound was tested in a cell-free SLe-polyacrylamide glycoconjugate binding assay (assay A) in Selectin E at 3 mM
[8] = molecular target: T1, E-selectin (Homo sapiens); experiment: as §1; remark: listed apart in the source
[9] = molecular target: T4, P-selectin (Homo sapiens) (UniProt P16109); conditions: 1 mM
T4 sequence (whole entry): T2 sequence (P16109 whole entry)
Description: Compound was tested in a cell-free SLe-polyacrylamide glycoconjugate binding assay (assay A) in P-selectin at 1 mM

[10] = molecular target: T1, E-selectin (Homo sapiens); experiment: Inhibitory activity against E-selectin was tested in a cell-free SLe-polymer/Selectin E assay, at 3 mM concentration; […]
E-selectin [11] = molecular target: T3, E-selectin; experiment: Compound was tested in a cell-free SLe-polyacrylamide glycoconjugate binding assay (assay A) in Selectin E; inactive
P-selectin [12] = molecular target: T2, P-selectin; experiment: Tested in a cell-free SLe-polyacrylamide glycoconjugate binding assay (assay A) in P-selectin
P-selectin [13] = molecular target: T2, P-selectin; experiment: Compound was tested in a cell-free SLe-polyacrylamide glycoconjugate binding assay (assay B) in P-selectin; value ranges from 1.3-2
[14] = molecular target: T1, E-selectin (Homo sapiens); experiment: Inhibitory activity against E-selectin was tested in a cell-free SLe-polymer/Selectin E assay, at 3 mM concentration; […].
P-selectin [15] = molecular target: T2, P-selectin; experiment: Compound was tested in a cell-free SLe-polyacrylamide glycoconjugate binding assay (assay A) in P-selectin; value ranges from 1-3

pIC50 (P-selectin [2]) | pIC50 (E-selectin [3]) | pIC50 (E-selectin [4]) | Compound | further results
4.12 | < 2.60 | 3.02 | CC1OC(CC(=O)N(CC(=O)NC(CCC(=O)O)C(=O)O)C(CCc2ccc(Oc3ccc(Oc4ccccc4)cc3)cc2)C(=O)NCCc2ccccc2)C(O)C(O)C1O (stereo not drawn) | –
4.39 and 4.37 | < 2.60 | 2.47 and 2.55 | COC(=O)CNC(=O)C(C)N(C(=O)CC1OC(COc2ccccc2)C(O)C(O)C1O)C(CCC(=O)O)C(=O)O (stereo not drawn) | –
3.51 and 4.07 | < 2.60 | < 2.52 | CC(C(=O)NCCc1ccccc1)N(C(=O)CC1OC(COc2ccccc2)C(O)C(O)C1O)C(CCC(=O)O)C(=O)O (stereo not drawn) | –
4.55 | < 2.40 | 2.52 | COC(=O)CNC(=O)C(CCC(=O)O)N(C(=O)CC1OC(CO)C(O)C(O)C1O)C(CCC(=O)O)C(=O)O (stereo not drawn) | IC50 (P-selectin [6]): Not Active
– | – | 3.08 | COC(=O)CNC(=O)C(CC1OC(C)C(O)C(O)C1O)N(Cc1ccccc1)C(=O)C(NC(=O)CCC(=O)O)C(O)CO (stereo not drawn) | –
5.40 | < 2.00 | 3.46 | O=C(O)CCC(NC(=O)CC1OC(COCCCc2ccc(Oc3ccc(Oc4ccccc4)cc3)cc2)C(O)C(O)C1O)C(=O)O (stereo not drawn) | pIC50 (P-selectin [12]): 4.47
4.82 | < 2.40 | 2.52 | O=C(O)CCC(C(=O)O)N(C(=O)CC1OC(CO)C(O)C(O)C1O)C(CCC(=O)O)C(=O)NCC(=O)O (stereo not drawn) | IC50 (P-selectin [6]): Not Active
4.55 | < 2.40 | 3.28 | CC1OC(CC(C(=O)NCCc2ccccc2)N(CC(=O)NC(CCC(=O)O)C(=O)O)C(=O)CCc2ccc(Oc3ccc(Oc4ccccc4)cc3)cc2)C(O)C(O)C1O (stereo not drawn) | pIC50 (P-selectin [12]): 3.55
3.90 and 4.49 | 2.47 and 2.44 | 3.38 and 3.22 | COC(=O)CNC(=O)C(C)N(C(=O)CC1OC(COCCCc2ccc(Oc3ccc(Oc4ccccc4)cc3)cc2)C(O)C(O)C1O)C(CCC(=O)O)C(=O)O (stereo not drawn) | pIC50 (P-selectin [15]): 3.00
4.06 and 3.87 | < 2.60 | < 2.52 | CC(C(=O)NC(C)(C)C)N(C(=O)CC1OC(COc2ccccc2)C(O)C(O)C1O)C(CCC(=O)O)C(=O)O (stereo not drawn) | –
– | < 2.00 | 3.44 and 3.00 | COC(=O)CNC(=O)C(C)N(C(=O)CC1OC(CO)C(O)C(O)C1O)C(CCC(=O)O)C(=O)O (stereo not drawn) | –

The next lines start with the molecule.

Compound | pIC50 (P-selectin [2]) | pIC50 (E-selectin [3]) | pIC50 (E-selectin [4]) | further results
O=C(O)CNC(=O)C(CC1OC(CO)C(O)C(O)C1O)N(CC(=O)O)C(=O)c1cccc2c1Cc1ccccc1-2 (stereo not drawn) | – | – | – | inhibition [1]: 48%
CCCCCC(=O)N(CC(=O)O)C(CC1OC(CO)C(O)C(O)C1O)C(=O)NCC(=O)O (stereo not drawn) | – | – | – | inhibition [5]: 52%
O=C(O)CCC(=O)N(C(CCC(=O)O)C(=O)O)C(CC1OC(CO)C(O)C(O)C1O)C(=O)NCC(=O)O (stereo not drawn) | 4.74 and 4.60 | < 2.40 | – | IC50 (P-selectin [6]): Not Active; inhibition [7]: 45%; inhibition [8]: 45%; inhibition [9]: 29%
C/C=C/C=C/C(=O)N(CC(=O)O)C(CC1OC(CO)C(O)C(O)C1O)C(=O)NCC(=O)O (stereo not drawn) | – | – | – | inhibition [10]: inactive
COC(=O)CCC(=O)N(C(CCC(=O)O)C(=O)O)C(CC1OC(CO)C(O)C(O)C1O)C(=O)NCC(=O)OC (stereo not drawn) | 4.41 and 3.85 | < 2.40 | 2.52 and < 2.52 | IC50 (P-selectin [6]): Not Active
CCOCCOCCOCCOCCCCOCC1OC(CC(=O)NC(CCC(=O)O)C(=O)O)C(O)C(O)C1O (stereo not drawn) | 4.70 | < 2.00 | – | IC50 (E-selectin [11]): Not Active; pIC50 (P-selectin [12]): < 2.52
CCCCCCCCCCCCCC(=O)N(CC(=O)O)C(CC1OC(CO)C(O)C(O)C1O)C(=O)NCC(=O)O (stereo not drawn) | – | – | – | inhibition [1]: 32%
O=C(O)CNC(=O)C(CC1OC(CO)C(O)C(O)C1O)N(CC(=O)O)C(=O)Cc1ccc2ccccc2c1 (stereo not drawn) | – | – | – | inhibition [1]: 51%
O=C(O)CNC(=O)C(CC1OC(CO)C(O)C(O)C1O)N(CC(=O)O)C(=O)Cc1cccc2ccccc12 (stereo not drawn) | – | – | – | inhibition [1]: 42%
CC(=O)N[C@H]1[C@H]([C@H](O)[C@H](O)CO)O[C@@](O[C@H]2[C@@H](O)[C@@H](CO)O[C@@H](O[C@@H]([C@H](O[C@@H]3O[C@@H](C)[C@@H](O)[C@@H](O)[C@@H]3O)[C@H](C=O)NC(C)=O)[C@H](O)CO)[C@@H]2O)(C(=O)O)C[C@@H]1O [SIALYL LEWIS X] | – | 2.96 | 3.32 | pIC50 (P-selectin [13]): 2.89; pIC50 (P-selectin [12]): < 2.52
CCOCCOCCOCCOCCCCOCC1OC(CC(=O)N(C(C)C(=O)NCC(=O)OC)C(CCC(=O)O)C(=O)O)C(O)C(O)C1O (stereo not drawn) | 5.30 and 6.00 | < 2.00 | 3.30 and 3.52 | pIC50 (P-selectin [12]): < 2.52
O=C(O)CNC(=O)C(CC1OC(CO)C(O)C(O)C1O)N(CC(=O)O)C(=O)c1ccc(-c2ccccc2)cc1 (stereo not drawn) | – | – | – | inhibition [14]: inactive
O=C(O)CNC(=O)C(CC1OC(CO)C(O)C(O)C1O)N(CC(=O)O)C(=O)CC1c2ccccc2-c2ccccc21 (stereo not drawn) | – | – | – | inhibition [14]: inactive
O=C(O)CNC(=O)C(CC1OC(CO)C(O)C(O)C1O)N(CC(=O)O)C(=O)c1ccccc1 (stereo not drawn) | – | – | – | inhibition [1]: 38%
CC(=O)N(CC(=O)O)C(CC1OC(CO)C(O)C(O)C1O)C(=O)NCC(=O)O (stereo not drawn) | – | – | – | inhibition [5]: 28%
O=C(O)CNC(=O)C(CC1OC(CO)C(O)C(O)C1O)N(CC(=O)O)C(=O)C(F)(F)F (stereo not drawn) | – | – | – | inhibition [5]: 42%
